In patent publication US20240382482A1, “PLASMA KALLIKREIN INHIBITORS” (TAKEDA PHARMACEUTICAL COMPANY LIMITED, priority 2021, published 2024):

Each compound was assayed against human activated kallikrein enzyme (Homo sapiens, UniProt P03952) (assay: Inhibition of human activated kallikrein enzyme, fluorogenic peptide substrate assay (500 pM enzyme format)). Conditions: 500 pM activated kallikrein, 300 μM PFR-AMC substrate, 30 min preincubation, 10 min reaction, room temperature; read-out: Primary Dose Response Assay: Average EC50.
Chain of human activated kallikrein enzyme (P03952 391-638 limits assumed): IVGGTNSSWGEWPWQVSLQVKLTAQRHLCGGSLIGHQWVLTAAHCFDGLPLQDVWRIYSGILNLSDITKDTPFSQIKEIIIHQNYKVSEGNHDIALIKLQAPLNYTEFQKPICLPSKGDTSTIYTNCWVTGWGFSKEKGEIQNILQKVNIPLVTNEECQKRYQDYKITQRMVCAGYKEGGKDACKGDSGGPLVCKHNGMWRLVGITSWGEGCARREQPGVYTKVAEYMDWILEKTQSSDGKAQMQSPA
Chain of human activated kallikrein enzyme (P03952 20-390 partner limits assumed): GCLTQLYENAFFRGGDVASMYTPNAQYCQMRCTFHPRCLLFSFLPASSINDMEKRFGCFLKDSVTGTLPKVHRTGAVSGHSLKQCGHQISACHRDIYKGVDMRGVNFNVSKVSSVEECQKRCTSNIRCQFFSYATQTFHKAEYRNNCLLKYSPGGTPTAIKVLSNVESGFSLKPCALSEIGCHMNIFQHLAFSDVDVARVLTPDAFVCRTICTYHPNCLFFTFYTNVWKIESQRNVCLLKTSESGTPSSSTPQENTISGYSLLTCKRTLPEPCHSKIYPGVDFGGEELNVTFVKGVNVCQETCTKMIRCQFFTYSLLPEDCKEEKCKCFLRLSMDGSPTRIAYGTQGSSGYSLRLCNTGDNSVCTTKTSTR
Format: biochemical
Procedure, shortened: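 500 pM enzyme preincubated 30 min at room temperature with inhibitor in 20 mM Tris pH 7.5, 150 mM NaCl, 1 mM EDTA, 0.1% PEG-400, 0.1% Triton X-100. Reaction started with 300 μM PFR-AMC and run 10 min at room temperature. AMC fluorescence read at ex 380/em 460 nm, and EC50 values reported as ranges.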

EC50 [nM]	SMILES
≤ 5	CCOC(=O)CCc1cc(C2CC2)cn2cc(COc3cc(NCc4c(C)cc(C(=N)N)cc4C)ncn3)nc12 [Example 96, ethyl 3-(2-(((6-((4-carbamimidoyl-2,6-dimethylbenzyl)amino)pyrimidin-4-yl)oxy)methyl)-6-cyclopropylimidazo[1,2-a]pyridin-8-yl)propanoate]
≤ 5	Cc1cc(C(=N)N)cc(C)c1CNc1cc(OCc2cn3cc(C4CC4)cc(CCC(=O)O)c3n2)ncn1 [Example 97, 3-(2-(((6-((4-carbamimidoyl-2,6-dimethylbenzyl)amino)pyrimidin-4-yl)oxy)methyl)-6-cyclopropylimidazo[1,2-a]pyridin-8-yl)propanoic acid]
5 to 50	O=C(Cc1ncn2ccc(Cl)cc12)Nc1cc(NCc2cn3cc(C4CC4)ccc3n2)nc(C(F)(F)F)n1 [Example 101, 2-(7-chloroimidazo[1,5-a]pyridin-1-yl)-N-(6-(((6-cyclopropylimidazo[1,2-a]pyridin-2-yl)methyl)amino)-2-(trifluoromethyl)pyrimidin-4-yl)acetamide]
> 9000	O=C(Cc1ncnc2ccc(Cl)cc12)Nc1cc(NCc2cn3cc(C4CC4)ccc3n2)ncn1 [Example 104, 2-(6-chloroquinazolin-4-yl)-N-(6-(((6-cyclopropylimidazo[1,2-a]pyridin-2-yl)methyl)amino)pyrimidin-4-yl)acetamide]
5 to 50	O=C(Cc1nncc2ccc(Cl)cc12)Nc1cc(NCc2cn3cc(C4CC4)ccc3n2)ncn1 [Example 105, 2-(7-chlorophthalazin-1-yl)-N-(6-(((6-cyclopropylimidazo[1,2-a]pyridin-2-yl)methyl)amino)pyrimidin-4-yl)acetamide]

Continued, compound first:

SMILES	EC50 [nM]
Cc1cc(C(=N)N)cc(C)c1CNc1cc(OCc2cn3cc(C4CC4)cc(CC(=O)O)c3n2)ncn1 [Example 95, 2-(2-((6-(4-carbamimidoyl-2,6-dimethylbenzylamino)pyrimidin-4-yloxy)methyl)-6-cyclopropylimidazo[1,2-a]pyridin-8-yl)acetic acid]	≤ 5
Cc1cc(C(=N)N)cc(C)c1CNc1cc(NCc2cn3cc(C4CC4)ccc3n2)cnn1 [Example 98, 4-(((5-(((6-cyclopropylimidazo[1,2-a]pyridin-2-yl)methyl)amino)pyridazin-3-yl)amino)methyl)-3,5-dimethylbenzimidamide]	≤ 5
Cc1cc(C(=N)N)cc(C)c1CNc1cc(NCc2cn3cc(C4CC4)ccc3n2)ncn1 [Example 99, 4-(((6-(((6-cyclopropylimidazo[1,2-a]pyridin-2-yl)methyl)amino)pyrimidin-4-yl)amino)methyl)-3,5-dimethylbenzimidamide]	≤ 5
COCCOc1nc(NCc2cn3cc(C4CC4)ccc3n2)cc(NC(=O)Cc2ncn3ccc(Cl)cc23)n1 [Example 100, 2-(7-chloroimidazo[1,5-a]pyridin-1-yl)-N-(6-(((6-cyclopropylimidazo[1,2-a]pyridin-2-yl)methyl)amino)-2-(2-methoxyethoxy)pyrimidin-4-yl)acetamide]	5 to 50
CC(=O)c1nc(NCc2cn3cc(C4CC4)ccc3n2)cc(NC(=O)Cc2ncn3ccc(Cl)cc23)n1 [Example 102, N-(2-acetyl-6-(((6-cyclopropylimidazo[1,2-a]pyridin-2-yl)methyl)amino)pyrimidin-4-yl)-2-(7-chloroimidazo[1,5-a]pyridin-1-yl)acetamide]	≤ 5
CC(O)c1nc(NCc2cn3cc(C4CC4)ccc3n2)cc(NC(=O)Cc2ncn3ccc(Cl)cc23)n1 (stereo not drawn) [Example 103, 2-(7-chloroimidazo[1,5-a]pyridin-1-yl)-N-(6-(((6-cyclopropylimidazo[1,2-a]pyridin-2-yl)methyl)amino)-2-(1-hydroxyethyl)pyrimidin-4-yl)acetamide]	≤ 5
CC(O)(C(=O)Nc1cc(NCc2cn3cc(C4CC4)ccc3n2)ncn1)c1ncn2ccc(Cl)c(F)c12 (stereo not drawn) [Example 106, 2-(7-chloro-8-fluoroimidazo[1,5-a]pyridin-1-yl)-N-(6-(((6-cyclopropylimidazo[1,2-a]pyridin-2-yl)methyl)amino)pyrimidin-4-yl)-2-hydroxypropanamide]	> 9000
